Results: patent US11648258B2, “Method and compounds for inhibiting the MCM complex and their application in cancer treatment” (priority 2012, dated 2023)

Tests used:
[1] = system: cancer cells (HeLa, HepG2); assay: Flow cytometry / Annexin V staining (cell cycle, apoptosis) in cancer cells; assay type: cell-based, human
Protocol: Both floating and attached cells were collected and washed once with PBS. Cells were fixed in 70% ethanol for 1 hr to overnight at −20° C., washed thoroughly with PBS, and then stained in 50 μg/ml RNase A, 0.1% Triton X-100, 0.1 mM EDTA (pH 7.4), and 50 μg/ml propidium iodide for 30 min at 4° C. Samples were analyzed with the FACSort instrument (Becton Dickinson).
Moreover, inhibition of DNA replication and subsequent induction of apoptosis by 17beta-Deacetyltanghinin could be shown by flow cytometry. In FIG. 7. Hela cells were blocked at M phase by Nocodazole (Noc.; FIG. 7A), the G1/S transition by mimosine (MMS; FIG. 7B), or at early S phase by Hydroxyurea (HU; FIG. 7C) and then released into fresh medium in the presence of 17beta-Deacetyltanghinin (DAT). The cells at different time points after release were analyzed by follow cytometry. Ayn. means asynchronous cells. Untreated cells and cells treated with the solvent DMSO could complete M, G1 and S phases after release (FIG. 7A). […] Similarly, cells released from the Mimosine (MMS) arrest (at the G1/S transition; FIG. 7B) or Hydroxyurea (HU) arrest (in early S phase; FIG. 7C) could not finish S phase in the presence of 17beta-Deacetyltanghinin.
In FIG. 8A, flow cytometry was performed to analyze the DNA contents in HepG2 and L-02 cells treated with 17beta-Deacetyltanghinin at various concentrations for 24 hrs. In FIG. 8B, Hela cells were treated with 17beta-Deacetyltanghinin for 24 hrs and labeled with Annexin V-Cy3 (Arm. Cy3) for 20 min. Mitoxantrone (MTX), a clinical anticancer drug that can induce apoptosis in cancer cells, was used as a positive control.

[2] = biological target: T1, hMcm2 and hMcm6 chromatin association (Homo sapiens, UniProt P49736+Q14566); assay: Chromatin binding assay (pre-RC assembly) in HeLa cells; assay type: cell-based
T1 construct: endogenous in cells; host or cells: HeLa
T1 sequence (P49736 2-904 limits assumed): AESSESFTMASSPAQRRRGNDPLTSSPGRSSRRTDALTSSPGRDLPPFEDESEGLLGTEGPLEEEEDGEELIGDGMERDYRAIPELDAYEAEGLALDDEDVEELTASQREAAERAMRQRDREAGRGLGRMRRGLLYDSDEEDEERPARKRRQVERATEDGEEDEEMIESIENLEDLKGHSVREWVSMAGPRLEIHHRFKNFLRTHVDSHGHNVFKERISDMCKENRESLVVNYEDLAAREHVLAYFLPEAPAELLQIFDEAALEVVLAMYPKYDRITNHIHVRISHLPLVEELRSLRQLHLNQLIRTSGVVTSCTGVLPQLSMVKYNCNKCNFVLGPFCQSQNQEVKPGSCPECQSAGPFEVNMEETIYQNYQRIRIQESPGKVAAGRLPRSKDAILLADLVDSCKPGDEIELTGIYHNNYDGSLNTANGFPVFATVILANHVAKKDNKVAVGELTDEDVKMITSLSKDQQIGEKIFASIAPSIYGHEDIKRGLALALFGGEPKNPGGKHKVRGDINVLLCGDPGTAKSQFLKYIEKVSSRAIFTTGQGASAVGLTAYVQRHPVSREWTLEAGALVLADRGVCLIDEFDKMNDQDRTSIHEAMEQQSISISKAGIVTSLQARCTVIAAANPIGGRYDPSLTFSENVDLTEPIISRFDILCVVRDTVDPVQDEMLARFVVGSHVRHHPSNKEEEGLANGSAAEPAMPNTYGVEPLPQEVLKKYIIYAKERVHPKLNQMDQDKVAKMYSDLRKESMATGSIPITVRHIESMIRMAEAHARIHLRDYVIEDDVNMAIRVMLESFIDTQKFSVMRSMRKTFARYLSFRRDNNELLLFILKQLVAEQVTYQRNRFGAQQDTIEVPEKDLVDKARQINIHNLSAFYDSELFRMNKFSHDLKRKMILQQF
T1 sequence (Q14566 whole entry): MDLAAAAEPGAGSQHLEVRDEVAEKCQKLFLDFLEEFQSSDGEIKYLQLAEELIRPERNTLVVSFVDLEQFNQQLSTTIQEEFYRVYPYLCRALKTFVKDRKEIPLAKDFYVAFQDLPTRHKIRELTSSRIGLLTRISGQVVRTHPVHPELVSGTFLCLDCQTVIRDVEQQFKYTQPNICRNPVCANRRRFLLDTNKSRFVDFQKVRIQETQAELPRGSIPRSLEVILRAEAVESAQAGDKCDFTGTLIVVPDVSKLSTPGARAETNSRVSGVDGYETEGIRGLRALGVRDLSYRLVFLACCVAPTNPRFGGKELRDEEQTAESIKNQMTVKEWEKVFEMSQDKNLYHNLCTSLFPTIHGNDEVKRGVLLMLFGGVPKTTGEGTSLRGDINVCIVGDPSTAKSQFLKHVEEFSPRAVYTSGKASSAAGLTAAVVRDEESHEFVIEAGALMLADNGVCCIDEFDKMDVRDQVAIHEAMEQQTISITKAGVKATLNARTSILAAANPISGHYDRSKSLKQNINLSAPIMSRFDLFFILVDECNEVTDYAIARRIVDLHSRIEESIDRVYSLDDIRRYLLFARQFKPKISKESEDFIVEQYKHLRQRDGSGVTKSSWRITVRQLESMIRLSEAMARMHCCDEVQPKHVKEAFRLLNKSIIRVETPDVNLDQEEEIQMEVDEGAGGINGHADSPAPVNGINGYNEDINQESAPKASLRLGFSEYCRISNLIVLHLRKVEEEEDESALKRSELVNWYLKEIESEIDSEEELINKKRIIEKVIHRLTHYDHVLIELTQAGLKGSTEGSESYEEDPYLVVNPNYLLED
Protocol: Cells were harvested by trypsinization and washed twice with cold PBS. Extraction buffer (EB; ˜20 μl/10^6 cells) (100 mM KCl, 50 mM HEPES-KOH pH7.5, 2.5 mM MgCl2, 50 mM NaF, 5 mM Na4P2O7, 0.1 mM NaVO3, 0.5% Triton X-100, 1 mM PMSF, 2 μg/ml Pepstatin A, 20 μg/ml Leupeptin, 20 μg/ml Aprotinin, 0.2 mM Pefabloc, 2 mM Benzamidine HCl and 0.2 mg/ml Bacitracin) was added to resuspend and lyse the cells by pippetting. Cells were set on ice for 10 min, and flicked to mix every 2-3 min during the incubation. A volume of 30% ice-cold sucrose equal to EB containing protease inhibitors as in EB was added to the bottom of tube. The tube was spun at top speed in a microcentrifuge for 10 min to separate the chromatin and free proteins. The supernatant was transferred to a new tube and kept on ice. […]
As the component of pre-RC, the MCM complex plays a central role in the licensing of DNA replication. […] In FIGS. 5A and B, asynchronous Hela cells were treated with 17beta-Deacetyltanghinin for 24 hrs and analyzed by the chromatin binding assay (FIG. 5A). Untreated cells (Untreat.), cells treated with the solvent DMSO, and those treated with 0.2, 0.4 or 0.8∝g/ml 17beta-Deacetyltanghinin were analyzed for pre-RC components in the chromatin and supernatant fractions by immunoblotting (FIG. 5A). […] Each cell sample was also analyzed for cell cycle distribution by flow cytometry (FIG. 5B). […]

[3] = system: cancer cell lines (HepG2, Hep3B, HeLa, HK1, C666-1); assay: cells; assay type: cell-based, human; settings: for IC50: Homo sapiens, 48 hrs treatment, WST-1, average over cancer cell lines
Protocol: For testing the anti-proliferation activity of the compounds in human cell lines and calculation of IC50, cancer cells including HepG2, HeLa and Hep3B (4×10^5 cells/well) and normal L-02 cells (5×10^5 cells/well) were respectively seeded in 96-well plates in 100 μl of culture medium and incubated for about 12 hrs at 37° C. The cells were treated with two-fold serial dilutions of the drugs for 48 hrs. Medium was removed and 100 μl of culture medium containing 1 μM WST-1 (water soluble tetrazolium-1) were added to each well. The cells were incubated for 2 hrs, and absorbance at 405 nm (reference at 630 nm) was then measured. To construct the standard curve of the relationship between cell number and absorbance at OD405, serial dilutions of cells with known cell numbers were seeded and incubated for six hrs before being measured by the WST-1 assay. The cell viability was expressed as the ratio of the number of live cells treated with a candidate compound versus that of the DMSO-treated cells.
To further test 17beta-Deacetyltanghinin and to determine the IC50 values, besides L-02 and HepG2, Hep3B (another liver cancer cell line which is p53-negative), HeLa (cervical cancer cell line), HK1 and C666-1 (nasopharyngeal carcinoma) cells and a hTert-immortalized normal nasopharyngeal cell line (NP460) were treated by 17beta-Deacetyltanghinin for 48 hrs, and the relative cell vabilities were determined by WST-1 assay (FIG. 2B, C).

COC1C(O)[C@H](O[C@H]2CC[C@]3(C)C4CC[C@]5(C)[C@@H](C6=CC(=O)OC6)CC[C@]5(O)[C@@]45O[C@H]5C[C@@H]3C2)OC(C)[C@@H]1O (stereo partly drawn) [17beta-Deacetyltanghinin, 3β-O-(3-O-methyl-6-deoxy-α-L-glucopyranosyl)-7β,8β-epoxy-14β-hydroxy-card-20(22)-enolide]
Annexin V staining (apoptosis) ([1]; HeLa cells, 24 hrs, Annexin V-Cy3): could be stained by Annexin V
cell cycle progression after release from Nocodazole arrest ([1]; HeLa cells, flow cytometry): could complete mitosis but could not enter S phase
induction of apoptosis (sub-G1 population, flow cytometry) ([1]; cancer cells): induced apoptotic cell death in cancer cells
MCM loading onto chromatin ([2]; HeLa cells released from nocodazole M phase arrest): largely prevented
hMcm2 and hMcm6 in chromatin fractions ([2]; asynchronous HeLa cells, 24 hrs, 0.2, 0.4 or 0.8 ∝g/ml): significantly reduced
IC50 [3]: ~0.1 µg/mL
IC50 ([3]; printed in brackets): ~200 nM
anti-proliferative (anticancer) activity, in words ([3]; WST-1 assay, 48 hrs): significantly inhibited
